Test results as given in patent US11578043B2, “Salt of delmopinol” (Lundbeck Pharmaceuticals Italy S.p.A., priority 2017, dated 2023).
Where a name gives a salt, the structure may show the parent alone.

Tests used:
[1] = Dynamic Vapour Sorption (DVS) experiments; format: physicochemical; conditions: DVS at 25° C.; for water / moisture absorbed (change in mass) when humidity is increased to 95%: relative humidity from 30% RH up to 95% RH in steps of 10% RH; for hygroscopicity (in words): up to 95% RH, non-hygroscopic = less than 1.5% moisture absorbed at 95% RH
Method: The DVS experiments depicted in FIGS. 3 and 4 were performed at 25° C. […] In the present context, a “non-hygroscopic” salt of delmopinol indicates a salt wherein less than 1.5% moisture is absorbed when the salt is exposed to 95% RH at 25° C. for example when determined by Dynamic Vapor Sorption (DVS) according to the method of Example 4. Dynamic Vapour Sorption (DVS) experiments were performed for delmopinol HCl and delmopinol citrate using a SMS DVS Advantage 01 changing the relative humidity from 30% RH up to 95% RH in steps of 10% RH.

[2] = XRPD of the salt before and after DVS (solid state change on exposure to humidity); format: physicochemical; conditions: after DVS experiments at 95% RH
Method: The XRPD diffractograms in FIGS. 5 and 6 were obtained using CuKα1 radiation (λ=1.5406 Å). […] The hygroscopicity of delmopinol HCl is reflected in FIG. 4 depicting the DVS diagram obtained at 25° C. by the method described in Example 4. […] These diffractograms were obtained on another instrument.

Compound | humidity at which the salt starts absorbing water [1] | water / moisture absorbed (change in mass) when humidity is increased to 95% [1] | hygroscopicity (in words) [1] | change of solid state caused by exposure to humidity (XRPD after DVS vs non-exposed material) [2]
CCCC(CCC)CCCC1COCCN1CCO (stereo not drawn) [delmopinol HCl, 2-(3-(4-propylheptyl)morpholino)ethan-1-ol] | below 50 % humidity | about 45% | very hygroscopic | irreversible
CCCC(CCC)CCCC1COCCN1CCO.O=C(O)CC(O)(CC(=O)O)C(=O)O (stereo not drawn) [delmopinol citrate, 2-(3-(4-propylheptyl)morpholino)ethan-1-ol] | – | less than 1.5% | non-hygroscopic | –
